Reference: patent US8124587B2, “2-(aminomethyl)-5-chlorobenzylamide derivatives and their use as inhibitors of the clotting factor Xa” (The Medicines Company (Leipzig) GmbH, priority 2005, dated 2012)
Read-outs that look alike come from different tables or passages of the source.

How the values were obtained:
Assay type in all cases: biochemical
Human plasmin = molecular target: T1, Human plasmin (Homo sapiens, UniProt P00747); experiment: Enzyme kinetic determination of Ki with chromogenic substrate, plasmin; conditions: Tris buffer pH 8.0, 25° C., Chromozym PL
T1 construct: Human plasmin (CHROMOGENIX, Milano, Italy); purchased CHROMOGENIX, Milano, Italy
Method: (§1) The inhibitory effect of the inhibitors for factor Xa, thrombin and plasmin were estimated using specific synthetic chromogenic substrates. […] The inhibitor was dissolved in Tris buffer, the substrates (all Pentapharm Ltd., Basel, CH) in water. […] Three different substrate concentrations and five different inhibitor concentrations were measured in each case.
(§2) The following enzymes and substrates were used for the measurements:
Human plasmin (CHROMOGENIX, Milano, Italy)
Substrate: Tos-Gly-Pro-Lys-pNA (Chromozym PL),
concentration: 2, 1 and 0.67 mM; reaction time: 3 min

Thrombin (bovine) = molecular target: T2, Thrombin (bovine) (Bos taurus, UniProt P00735); experiment: Enzyme kinetic determination of Ki with chromogenic substrate, thrombin
T2 construct: Thrombin (bovine)
Method: as §1, §2
Enzyme content: 2.5 IE/ml (in 0.9% NaCl with 1% HSA)
Substrate: CH3SO2-D-HHT-Gly-Arg-pNA (Pefachrome tPA),
concentration: 2, 1 and 0.5 mM; reaction time: 3 min

Human factor Xa = molecular target: T3, Human factor Xa (Homo sapiens, UniProt P00742); experiment: Enzyme kinetic determination of Ki with chromogenic substrate, factor Xa; conditions: Tris buffer pH 8.0, 25° C., Pefachrome Xa, read-out: Ki (nM) FXa
T3 construct: Human factor Xa (Enzyme Research Lab., purchased from Haemochrom Diagnostica GmbH, Essen); purchased Enzyme Research Lab; (via Haemochrom Diagnostica GmbH, Essen)
Method: as §1, §2
Human factor Xa (Enzyme Research Lab., purchased from Haemochrom Diagnostica GmbH, Essen)
Enzyme content: 0.67 μg/ml
Substrate: CH3OCO-D-Cha-Gly-Arg-pNA (Pefachrome Xa),
concentration: 4, 2 and 1 mM; reaction time: 4 min

[1] = bovine thrombin, Tris buffer pH 8.0, 25° C., Pefachrome tPA, read-out: Ki (nM) Thrombin

T1 sequence (P00747 581-810 limits assumed): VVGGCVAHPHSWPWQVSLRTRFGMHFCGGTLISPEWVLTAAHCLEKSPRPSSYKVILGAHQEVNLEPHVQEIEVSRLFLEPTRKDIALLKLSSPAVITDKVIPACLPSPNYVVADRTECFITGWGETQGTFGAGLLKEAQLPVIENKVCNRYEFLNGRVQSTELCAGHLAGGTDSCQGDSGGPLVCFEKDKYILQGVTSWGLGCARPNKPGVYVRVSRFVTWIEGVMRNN
T1 sequence (P00747 97-580 limits assumed): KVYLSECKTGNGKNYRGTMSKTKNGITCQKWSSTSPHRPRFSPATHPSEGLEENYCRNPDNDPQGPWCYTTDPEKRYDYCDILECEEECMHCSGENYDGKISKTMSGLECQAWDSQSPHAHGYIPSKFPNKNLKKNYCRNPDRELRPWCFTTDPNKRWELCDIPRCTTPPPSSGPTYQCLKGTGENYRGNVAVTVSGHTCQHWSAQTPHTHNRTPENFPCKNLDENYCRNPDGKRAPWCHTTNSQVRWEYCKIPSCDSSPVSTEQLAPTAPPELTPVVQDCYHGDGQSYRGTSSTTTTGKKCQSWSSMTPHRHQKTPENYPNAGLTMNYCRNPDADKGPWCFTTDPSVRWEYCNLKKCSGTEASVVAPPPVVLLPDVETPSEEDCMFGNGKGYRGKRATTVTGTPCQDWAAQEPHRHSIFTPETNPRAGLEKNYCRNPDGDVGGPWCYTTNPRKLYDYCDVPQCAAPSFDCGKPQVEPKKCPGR
T3 sequence (P00742 235-488 limits assumed): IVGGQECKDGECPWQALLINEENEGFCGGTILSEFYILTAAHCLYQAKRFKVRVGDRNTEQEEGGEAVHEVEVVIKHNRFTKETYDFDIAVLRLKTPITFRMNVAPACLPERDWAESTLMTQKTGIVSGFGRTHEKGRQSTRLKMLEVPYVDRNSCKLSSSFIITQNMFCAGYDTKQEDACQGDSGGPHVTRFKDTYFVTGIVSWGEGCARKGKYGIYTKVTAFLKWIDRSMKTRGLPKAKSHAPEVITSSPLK
T3 sequence (P00742 41-179 limits assumed): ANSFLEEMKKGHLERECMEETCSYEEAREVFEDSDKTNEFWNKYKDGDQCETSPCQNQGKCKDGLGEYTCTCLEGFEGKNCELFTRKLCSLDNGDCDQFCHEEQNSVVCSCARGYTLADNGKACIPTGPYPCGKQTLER

SMILES: COC(=O)Cc1ccc(CS(=O)(=O)NC(CCc2cccc[n+]2[O-])C(=O)NCC(=O)NCc2cc(Cl)ccc2CN)cc1 (stereo not drawn) [Inhibitor 13]
- Ki (Human plasmin): 200000 nM
- Ki (Thrombin (bovine)): 1010 nM

SMILES: NCc1ccc(Cl)cc1CNC(=O)CNC(=O)[C@H](O)CCc1ccccc1 [Inhibitor 8]
- Ki (Human factor Xa): 2200 nM
- Ki (Human plasmin): 540000 nM
- Ki (Thrombin (bovine); [1]): 1600 nM

SMILES: NCc1ccc(Cl)cc1CNC(=O)CNC(=O)C(CCc1ccccn1)NS(=O)(=O)Cc1cccnc1 (stereo not drawn) [Inhibitor 26]
- Ki (Human factor Xa): 0.34 nM
- Ki (Human plasmin): 210000 nM
- Ki (Thrombin (bovine); [1]): 140 nM

SMILES: NCc1ccc(Cl)cc1CNC(=O)CNC(=O)C(CCc1ccccn1)NS(=O)(=O)Cc1ccc(C(=O)O)cc1 (stereo not drawn) [Inhibitor 23]
- Ki (Human factor Xa): 11 nM
- Ki (Human plasmin): 140000 nM
- Ki (Thrombin (bovine); [1]): 330 nM

SMILES: CCOC(=O)CN[C@H](CCc1cccc[n+]1[O-])C(=O)N1CCC[C@H]1C(=O)NCc1cc(Cl)ccc1CN [Inhibitor 33]
- Ki (Human factor Xa): 0.4 nM
- Ki (Human plasmin): 240000 nM

SMILES: NCc1ccc(Cl)cc1CNC(=O)[C@H](CO)NC(=O)[C@@H](CCc1ccccn1)NS(=O)(=O)Cc1ccc(CC(=O)O)cc1 [Inhibitor 19]
- Ki (Human factor Xa): 0.78 nM
- Ki (Human plasmin): 100000 nM
- Ki (Thrombin (bovine); [1]): 210 nM

SMILES: NCc1ccc(Cl)cc1CNC(=O)[C@@H]1CCCN1C(=O)[C@@H](CCc1cccc[n+]1[O-])NCC(=O)O [Inhibitor 35]
- Ki (Human factor Xa): 0.4 nM
- Ki (Human plasmin): 100000 nM
- Ki (Thrombin (bovine)): 17.2 nM

SMILES: CC(C)OC(=O)CS(=O)(=O)NC(CCc1ccccn1)C(=O)NCC(=O)NCc1cc(Cl)ccc1CN (stereo not drawn) [Inhibitor 30]
- Ki (Human factor Xa): 2.1 nM
- Ki (Human plasmin): 290000 nM
- Ki (Thrombin (bovine); [1]): 66 nM

SMILES: CC(C)OC(=O)CS(=O)(=O)NC(CCc1cccc[n+]1[O-])C(=O)NCC(=O)NCc1cc(Cl)ccc1CN (stereo not drawn) [Inhibitor 28]
- Ki (Human factor Xa): 7.6 nM
- Ki (Human plasmin): 305000 nM
- Ki (Thrombin (bovine)): 1600 nM

SMILES: NCc1ccc(Cl)cc1CNC(=O)CNC(=O)C(CCc1cccc[n+]1[O-])NS(=O)(=O)Cc1ccc(CC(=O)O)cc1 (stereo not drawn) [Inhibitor 14]
- Ki (Human plasmin): > 1e+06 nM
- Ki (Thrombin (bovine)): 930 nM

SMILES: CCCS(=O)(=O)NC(CCc1cccc[n+]1[O-])C(=O)NCC(=O)NCc1cc(Cl)ccc1CN (stereo not drawn) [Inhibitor 4]
- Ki (Human plasmin): 280000 nM
- Ki (Thrombin (bovine)): 2630 nM

SMILES: NCc1ccc(Cl)cc1CNC(=O)CNC(=O)C(CCc1ccccn1)NS(=O)(=O)Cc1ccc(CC(=O)O)cc1 (stereo not drawn) [Inhibitor 15]
- Ki (Human factor Xa): 0.68 nM
- Ki (Human plasmin): > 1e+06 nM
- Ki (Thrombin (bovine); [1]): 140 nM

SMILES: NCc1ccc(Cl)cc1CNC(=O)CNC(=O)[C@@H](CCc1cccc[n+]1[O-])NS(=O)(=O)Cc1ccccc1 [Inhibitor 1]
- Ki (Human plasmin): 600000 nM
- Ki (Thrombin (bovine)): 170 nM

SMILES: NCc1ccc(Cl)cc1CNC(=O)[C@@H]1CCCN1C(=O)[C@@H](CCc1cccc[n+]1[O-])NS(=O)(=O)CC(=O)O [Inhibitor 27]
- Ki (Human plasmin): 98000 nM
- Ki (Thrombin (bovine)): 22 nM

SMILES: NCc1ccc(Cl)cc1CNC(=O)CNC(=O)C(CCc1cccc[n+]1[O-])NS(=O)(=O)Cc1ccc(C(=O)O)cc1 (stereo not drawn) [Inhibitor 21]
- Ki (Human factor Xa): 4.1 nM
- Ki (Human plasmin): 130000 nM
- Ki (Thrombin (bovine); [1]): 1300 nM

SMILES: NCc1ccc(Cl)cc1CNC(=O)[C@@H]1CCCN1C(=O)[C@@H](CCc1cccc[n+]1[O-])NCC(=O)OC1CCCCC1 [Inhibitor 38]
- Ki (Human factor Xa): 1.01 nM

SMILES: COC(=O)CC[C@H](NC(=O)C(CCc1cccc[n+]1[O-])NS(=O)(=O)Cc1ccccc1)C(=O)NCc1cc(Cl)ccc1CN (stereo partly drawn) [Inhibitor 5]
- Ki (Human factor Xa): 0.43 nM
- Ki (Human plasmin): 130000 nM
- Ki (Thrombin (bovine); [1]): 350 nM

SMILES: NCc1ccc(Cl)cc1CNC(=O)CNC(=O)C(CCc1cccc[n+]1[O-])NS(=O)(=O)CC(=O)O (stereo not drawn) [Inhibitor 29]
- Ki (Human plasmin): > 1e+06 nM
- Ki (Thrombin (bovine)): 8300 nM

SMILES: COC(=O)c1ccc(CS(=O)(=O)NC(CCc2ccccn2)C(=O)NCC(=O)NCc2cc(Cl)ccc2CN)cc1 (stereo not drawn) [Inhibitor 22]
- Ki (Human factor Xa): 1.05 nM
- Ki (Human plasmin): 98000 nM
- Ki (Thrombin (bovine); [1]): 100 nM

SMILES: NCc1ccc(Cl)cc1CNC(=O)[C@H](CCC(=O)O)NC(=O)C(CCc1cccc[n+]1[O-])NS(=O)(=O)Cc1ccccc1 (stereo partly drawn) [Inhibitor 6]
- Ki (Human plasmin): 400000 nM
- Ki (Thrombin (bovine)): 20500 nM

SMILES: COC(=O)Cc1ccc(CS(=O)(=O)NC(CCc2ccccn2)C(=O)N[C@@H](CO)C(=O)NCc2cc(Cl)ccc2CN)cc1 (stereo partly drawn) [Inhibitor 18]
- Ki (Human factor Xa): 0.67 nM
- Ki (Human plasmin): > 1e+06 nM
- Ki (Thrombin (bovine); [1]): 430 nM

SMILES: COC(=O)CC[C@H](NC(=O)[C@@H](CCc1cccc[n+]1[O-])NS(=O)(=O)Cc1ccccc1)C(=O)NCc1cc(Cl)ccc1CN [Inhibitor 11]
- Ki (Human factor Xa): 0.24 nM
- Ki (Human plasmin): 78000 nM
- Ki (Thrombin (bovine); [1]): 180 nM

SMILES: C[C@H](NC(=O)[C@@H](CCc1cccc[n+]1[O-])NS(=O)(=O)Cc1ccccc1)C(=O)NCc1cc(Cl)ccc1CN [Inhibitor 10]
- Ki (Human plasmin): 85000 nM
- Ki (Thrombin (bovine)): 170 nM

SMILES: NCc1ccc(Cl)cc1CNC(=O)[C@H](CO)NC(=O)[C@@H](CCc1cccc[n+]1[O-])NS(=O)(=O)Cc1ccc(CC(=O)O)cc1 [Inhibitor 17]
- Ki (Human factor Xa): 0.18 nM
- Ki (Human plasmin): > 1e+06 nM
- Ki (Thrombin (bovine); [1]): 540 nM

SMILES: CCOC(=O)CN[C@H](CCc1ccccn1)C(=O)N1CCC[C@H]1C(=O)NCc1cc(Cl)ccc1CN [Inhibitor 34]
- Ki (Thrombin (bovine)): 3.8 nM

SMILES: COC(=O)c1ccc(CS(=O)(=O)NC(CCc2cccc[n+]2[O-])C(=O)N[C@@H](CO)C(=O)NCc2cc(Cl)ccc2CN)cc1 (stereo partly drawn) [Inhibitor 24]
- Ki (Human factor Xa): 0.48 nM
- Ki (Human plasmin): 160000 nM
- Ki (Thrombin (bovine); [1]): 930 nM

SMILES: NCc1ccc(Cl)cc1CNC(=O)CNC(=O)C(CCc1cccc[n+]1[O-])NS(=O)(=O)Cc1ccc[n+]([O-])c1 (stereo not drawn) [Inhibitor 25]
- Ki (Human factor Xa): 1.4 nM
- Ki (Human plasmin): > 1e+06 nM
- Ki (Thrombin (bovine); [1]): 2500 nM

SMILES: NCc1ccc(Cl)cc1CNC(=O)CNC(=O)C(CCc1cccc[n+]1[O-])NCC(=O)O (stereo not drawn) [Inhibitor 9]
- Ki (Human plasmin): > 1e+06 nM
- Ki (Thrombin (bovine)): 125000 nM

SMILES: NCc1ccc(Cl)cc1CNC(=O)[C@@H]1CCCN1C(=O)C(CCc1cccc[n+]1[O-])NC(=O)C(=O)O (stereo partly drawn) [Inhibitor 31]
- Ki (Human factor Xa): 0.88 nM
- Ki (Human plasmin): 80000 nM
- Ki (Thrombin (bovine); [1]): 43 nM

SMILES: NCc1ccc(Cl)cc1CNC(=O)[C@H](CN)NC(=O)[C@@H](CCc1cccc[n+]1[O-])NS(=O)(=O)Cc1ccccc1 [Inhibitor 12]
- Ki (Human factor Xa): 0.54 nM
- Ki (Human plasmin): 2300 nM
- Ki (Thrombin (bovine); [1]): 750 nM

SMILES: NCc1ccc(Cl)cc1CNC(=O)[C@H](CO)NC(=O)C(CCc1ccccn1)NS(=O)(=O)Cc1ccccc1 (stereo partly drawn) [Inhibitor 3]
- Ki (Human plasmin): 350000 nM
- Ki (Thrombin (bovine)): 260 nM

SMILES: NCc1ccc(Cl)cc1CNC(=O)CNC(=O)C(CCc1cccc[n+]1[O-])NC(=O)CC(=O)O (stereo not drawn) [Inhibitor 32]
- Ki (Thrombin (bovine)): 140 nM

SMILES: NCc1ccc(Cl)cc1CNC(=O)[C@@H]1CCCN1C(=O)[C@@H](CCc1cccc[n+]1[O-])NS(=O)(=O)Cc1ccccc1 [Inhibitor 7]
- Ki (Human plasmin): 8470 nM
- Ki (Thrombin (bovine)): 0.56 nM

SMILES: COC(=O)c1ccc(CS(=O)(=O)NC(CCc2cccc[n+]2[O-])C(=O)NCC(=O)NCc2cc(Cl)ccc2CN)cc1 (stereo not drawn) [Inhibitor 20]
- Ki (Human factor Xa): 0.3 nM
- Ki (Human plasmin): 140000 nM
- Ki (Thrombin (bovine); [1]): 360 nM
